According to paper PMC5815904 (Circulation research, 2017):

Tests used:
[1] = target: T1, Pannexin 1 (PANX1) (Homo sapiens, UniProt Q96RD7); assay: whole-cell patch clamp in apoptotic Jurkat cells; format: cell-based
Target sequence in this assay (Q96RD7 whole entry): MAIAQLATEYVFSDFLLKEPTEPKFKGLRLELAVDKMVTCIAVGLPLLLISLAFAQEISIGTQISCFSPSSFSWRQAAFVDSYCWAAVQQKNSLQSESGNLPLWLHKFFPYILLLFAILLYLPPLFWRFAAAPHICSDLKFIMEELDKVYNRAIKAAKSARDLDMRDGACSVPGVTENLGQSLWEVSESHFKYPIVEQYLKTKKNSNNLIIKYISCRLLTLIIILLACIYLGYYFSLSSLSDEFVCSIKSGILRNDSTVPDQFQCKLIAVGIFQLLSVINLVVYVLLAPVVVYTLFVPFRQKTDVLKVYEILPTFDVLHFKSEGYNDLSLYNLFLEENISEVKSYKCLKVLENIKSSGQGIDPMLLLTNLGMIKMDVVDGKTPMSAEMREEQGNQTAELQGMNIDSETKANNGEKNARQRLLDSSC

[2] = target: T1, Pannexin 1 (PANX1); assay: whole-cell patch clamp in HEK293T; format: cell-based
Target sequence in this assay (Q96RD7 1-379 limits assumed): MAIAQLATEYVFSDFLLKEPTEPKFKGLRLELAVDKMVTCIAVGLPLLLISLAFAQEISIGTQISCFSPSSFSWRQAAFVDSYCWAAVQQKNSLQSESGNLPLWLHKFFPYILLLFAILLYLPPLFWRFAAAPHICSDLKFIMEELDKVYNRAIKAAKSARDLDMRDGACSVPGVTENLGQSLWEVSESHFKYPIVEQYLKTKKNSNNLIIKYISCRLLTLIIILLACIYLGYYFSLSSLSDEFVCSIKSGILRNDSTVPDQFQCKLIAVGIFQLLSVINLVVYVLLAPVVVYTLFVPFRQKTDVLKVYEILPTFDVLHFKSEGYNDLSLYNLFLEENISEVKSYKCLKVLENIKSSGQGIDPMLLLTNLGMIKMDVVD

SMILES	whole-cell patch clamp in apoptotic Jurkat cells [1]	IC50 [2] [µM]
CC1(C)[C@@H](OC(=O)CCC(=O)O)CC[C@]2(C)[C@H]3C(=O)C=C4[C@@H]5C[C@@](C)(C(=O)O)CC[C@]5(C)CC[C@@]4(C)[C@]3(C)CC[C@@H]12 [carbenoxolone]	the current sensitive to spironolactone was fully blocked by carbenoxolone (CBX), a drug known to inhibit PANX1	
CC(=O)S[C@@H]1CC2=CC(=O)CC[C@]2(C)[C@H]2CC[C@@]3(C)[C@@H](CC[C@@]34CCC(=O)O4)[C@H]12 [spironolactone]		8.7 ± 1.5
